From ChEMBL document CHEMBL4627355, “Chemical reactivity and uses of 1-phenyl-3-methyl-5-pyrazolone (PMP), also known as edaravone” (Bioorg Med Chem, 2020)

What was measured:
[1] = Antioxidant activity assessed as copper-chelating scavenging activity; type: functional
[2] = Inhibition of lipid peroxidation; type: functional

Row | Structure (SMILES) | IC50 [1] | IC50 [2]
1 | CC1=NN(c2ccccc2)C(=O)C1 [EDARAVONE] | 9 µM | 4.5 µM
2 | O=C1CC(c2ccccc2)=NN1c1ccccc1 | 3 µM | 3.5 µM
